ChEMBL document CHEMBL2074169, “Contribution of organic anion transporting polypeptide to uptake of its possible substrates into rat hepatocytes” (J Pharmacol Exp Ther, 1999)
Structures can show the parent of a compound that is named as a salt.

T1: Solute carrier organic anion transporter family member 1A1 (Rattus norvegicus, UniProt P46720)
T1 sequence (P46720 whole entry): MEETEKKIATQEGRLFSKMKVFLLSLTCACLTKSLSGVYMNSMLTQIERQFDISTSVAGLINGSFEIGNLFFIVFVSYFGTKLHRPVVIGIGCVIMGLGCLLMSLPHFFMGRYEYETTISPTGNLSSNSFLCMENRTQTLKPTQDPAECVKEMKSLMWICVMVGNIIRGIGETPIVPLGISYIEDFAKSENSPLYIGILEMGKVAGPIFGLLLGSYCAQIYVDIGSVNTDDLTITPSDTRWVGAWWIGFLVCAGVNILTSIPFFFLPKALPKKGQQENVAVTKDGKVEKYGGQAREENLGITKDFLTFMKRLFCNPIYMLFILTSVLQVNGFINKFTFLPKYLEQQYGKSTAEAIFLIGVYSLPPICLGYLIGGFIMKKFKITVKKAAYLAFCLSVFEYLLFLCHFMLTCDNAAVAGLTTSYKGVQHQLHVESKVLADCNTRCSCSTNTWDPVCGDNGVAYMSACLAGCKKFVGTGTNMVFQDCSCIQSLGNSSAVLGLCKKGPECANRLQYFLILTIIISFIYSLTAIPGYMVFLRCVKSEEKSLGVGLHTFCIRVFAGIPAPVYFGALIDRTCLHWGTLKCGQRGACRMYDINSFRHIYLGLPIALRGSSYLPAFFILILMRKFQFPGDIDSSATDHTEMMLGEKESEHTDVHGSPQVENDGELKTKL


How the values were obtained:
[1] = molecular target: T1, Solute carrier organic anion transporter family member 1A1; experiment: (§1) TP_TRANSPORTER: uptake in Oatp1-expressing COS-7 cells; format: functional, cell-based; conditions: monkey
[2] = substrate: C[C@]12CC[C@@H]3c4ccc(O)cc4CC[C@H]3[C@@H]1CC[C@@H]2O[C@@H]1O[C@H](C(=O)O)[C@@H](O)[C@H](O)[C@H]1O; experiment: as §1; format: functional, cell-based

Row | Molecule | Activity [1] | Km [2]
1 | CNc1nc2c(Cc3cccnc3)c(C)c(OS(=O)(=O)O)c(C)c2s1 [E3040 SULFATE] | substrate [+] | 
2 | C[C@]12CC[C@@H]3c4ccc(OS(=O)(=O)O)cc4CC[C@H]3[C@@H]1CCC2=O [ESTRONE SULFURIC ACID] | substrate [+] | 
3 | Solute carrier organic anion transporter family member 1A1 (Rattus norvegicus) (protein) MEETEKKIATQEGRLFSKMKVFLLSLTCACLTKSLSGVYMNSMLTQIERQFDISTSVAGLINGSFEIGNLFFIVFVSYFGTKLHRPVVIGIGCVIMGLGCLLMSLPHFFMGRYEYETTISPTGNLSSNSFLCMENRTQTLKPTQDPAECVKEMKSLMWICVMVGNIIRGIGETPIVPLGISYIEDFAKSENSPLYIGILEMGKVAGPIFGLLLGSYCAQIYVDIGSVNTDDLTITPSDTRWVGAWWIGFLVCAGVNILTSIPFFFLPKALPKKGQQENVAVTKDGKVEKYGGQAREENLGITKDFLTFMKRLFCNPIYMLFILTSVLQVNGFINKFTFLPKYLEQQYGKSTAEAIFLIGVYSLPPICLGYLIGGFIMKKFKITVKKAAYLAFCLSVFEYLLFLCHFMLTCDNAAVAGLTTSYKGVQHQLHVESKVLADCNTRCSCSTNTWDPVCGDNGVAYMSACLAGCKKFVGTGTNMVFQDCSCIQSLGNSSAVLGLCKKGPECANRLQYFLILTIIISFIYSLTAIPGYMVFLRCVKSEEKSLGVGLHTFCIRVFAGIPAPVYFGALIDRTCLHWGTLKCGQRGACRMYDINSFRHIYLGLPIALRGSSYLPAFFILILMRKFQFPGDIDSSATDHTEMMLGEKESEHTDVHGSPQVENDGELKTKL |  | 20.4 µM
